The subject of one data set is TNFα release. The data set is described as follows: In vivo cytokine release in sera of CD1 mice (ELISA): TNFα. On the set-up: species or system mouse. As for the experimental part: (§1) In order to evaluate to which extent the LPS-peptide complex can attenuate LPS-induced toxic effects, the effect of the LPS-peptide complex on the release of pro-inflammatory cytokines is monitored (assessed) in in vitro and in vivo assays. • In vivo: cytokine (IL6 and TNFα) releases in the sera of mice immunized either with LPS or LPS-peptide complex are compared by ELISA. Blood samples are recovered 90 min after SC immunization, which is the optimal time for the release of those cytokines. C3H/HeOuJ, TLR4-/-, C3H/HeN and CD1 mouse strains are tested. The two first are sensitive neither to LPS nor LPS-peptide complex. The third and fourth are both found LPS-sensitive. CD1 mice are found more LPS-peptide complex-sensitive than the others and therefore selected for further experiments retaining the most severe conditions. • In vitro:cytokine (IL6, IL8 and TNFα) releases from human whole blood cell cultures stimulated for 24h at 37° C., with different concentrations of LPS or LPS-peptide complex are compared. 5.4.1. In Vivo Assay
(§2) CD1 mice are administered subcutaneously (SC) (i) either 10 μg of LPS or (ii) 10 μg of LPS-peptide complex. They are bled 90 minutes after injection. IL6 and TNFα releases are measured in the sera by ELISA. […]
(§3) The reaction is stopped by adding 100 μl of 1 M H3PO4 per well. Plates are read at 450 nm.
A general note: In an ELISA, binding on a coated surface is turned into a signal by an enzyme label.

Data set [1] concerns N. meningitidis strain used for LPS production. Briefly: Serum bactericidal activity (SBA) of sera of immunized rabbits. In kind it is in vivo. The note with it: individual rabbits. The method, then:
Immunization of three adult New-Zealand rabbits is performed with 100 μg of LPS-peptide complex by intramuscular (IM) and subcutaneous (SC) routes (2×0.5 mL and 5×0.2 mL respectively) in the presence of adjuvant. They receive three injections at 3-week interval; the first one with complete Freund adjuvant (FA), the second and third ones with incomplete Freund adjuvant. They are bled two weeks after the last injection. A control group is immunized with the peptide with adjuvant (71 μg, equivalent to the amount of the peptide in 100 μg of LPS-peptide complex) using the same protocol.
The bactericidal activity of the serum (SBA) samples is evaluated against the N. meningitidis strain used for LPS production as described in Example 5 in the presence of baby rabbit serum as exogenous source of complement.
Sera are heat-inactivated during 30 min at 56° C. In the wells of a 96-well microplate, heat-inactivated sera are then twofold serially diluted (10 times) in Dulbecco's phosphate buffered saline containing Ca^++ and Mg^++ (volume per well: 50 μl).
Twenty five μl of a log phase culture of N. meningitidis grown in Mueller-Hinton broth (4.10^3 CFU/mL) and 25 μl of baby rabbit serum are added to each well. The plate is incubated one hour at 37° C., under shaking.
Fifty μl of the mixture from each well are plated onto Mueller-Hinton agar. Petri dishes are incubated overnight at +37° C. in a 10% CO2 atmosphere.
In each experiment, controls include (i) bacteria and the complement source without antibodies (complement control), (ii) bacteria and heat-inactivated complement, and (iii) bacteria and heat-inactivated complement, in the presence of antibodies.
Bactericidal titre is reported as the highest reciprocal serum dilution at which ≧50% killing of bacteria is observed as compared to the complement control.

Another data set relates to IL6 release. The data set is described as follows: In vivo cytokine release in sera of CD1 mice (ELISA): IL6. On the set-up: species or system mouse. The method, then: as §1, §2, §3
Setting [2] is: 10 μg SC, sera 90 minutes after injection.

One molecule from US7507718B2, “Polymyxin B analogs for LPS detoxification” (Sanofi Pasteur, priority 2005, dated 2009) can be followed below.

Values joined by “and” are separate entries in the source; they are usually repeats but may differ in a detail not shown here. Equal values may be shown once. Bridge positions count the residues as written; N and C are the ends. Peptide text beside a SMILES is read from it. I, II: the chains in the order shown. Where only a bound is given, the exact number is not on record here.

On to `CC(C)C[C@@H]1NC(=O)[C@H](CC(C)C)NC(=O)[C@H](CC(C)C)NC(=O)[C@H](Cc2ccccc2)NC(=O)[C@H](CCCCN)NC(=O)[C@@H](NC(=O)[C@H](CCCCN)NC(=O)[C@@H](NC(=O)[C@@H](N)CCCCN)[C@@H](C)O)CSSC[C@@H](C(=O)O)NC(=O)[C@H](CC(C)C)NC(=O)[C@H](CC(C)C)NC(=O)[C@H](CC(C)C)NC(=O)[C@H](Cc2ccccc2)NC(=O)[C@H](CCCCN)NC(=O)[C@@H](NC(=O)[C@H](CCCCN)NC(=O)[C@@H](NC(=O)[C@@H](N)CCCCN)[C@@H](C)O)CSSC[C@@H](C(=O)O)NC1=O` [Peptide, NH2-Lys-Thr-Lys-Cys1-Lys-Phe-Leu-Leu-Leu-Cys2-COOH] (I: H-KTKCKFLLLC-OH / II: H-KTKCKFLLLC-OH; disulfide I:4-II:10, I:10-II:4), for which the “TNFα release, Mean (pg/mL) n = 6 (log)” value in the data set on TNFα release (setting [2]) is <1 pg/mL (log). For the same molecule, the “Induction of TNFα (in words)” value in the data set on TNFα release (peptide alone) is recorded as “does not induce”. Further, the “SBA titre, Pre-immunized sera” value in data set [1] (baseline before immunization, baby rabbit complement) was 4 and 16. Moreover, the “SBA titre, Post-dose 3 immunized sera” value in data set [1] (100 μg complex or 71 μg peptide IM+SC with Freund adjuvant, three injections) was 16. The “SBA titre, Post-dose 3 immunized sera adsorbed on LPS” value in data set [1] (sera adsorbed on LPS) was 4 and 8. For the same molecule, the “IL6 release, Mean (pg/mL) n = 6 (log)” value with IL6 release (setting [2]) is reported as <1 pg/mL (log). Besides, in the data set with IL6 release (peptide alone), the “Induction of IL6 (in words)” value is listed as “does not induce”.
